# Laboratory results as given in patent US11858956B2, “6-aza-nucleoside prodrugs as antiviral agents for treating virus infections” (Southern Research Institute, priority 2020, dated 2024).
# Assays:
# Type in all cases: cell-based
# [1] = Cytotoxicity (CC50) in HEK293 cells; conditions: human, WNV
# Experimental: (§1) As used herein, “CC50” is intended to refer to the concentration of a substance (e.g., a compound or a drug) that is required for 50% reduction of cell viability. In one aspect, an CC50 can refer to the concentration of a substance that is required for 50% reduction (i.e., cytotoxicity) in vivo, as further defined elsewhere herein.
# The antiviral activity against Alpharviruses evaluated in HEK293 cells (4 hours pre-incubation with compound before infected with virus) is shown in Table 2 below. VTR=Virus titer reduction in log at 10 μM concentration. NT: not tested, ND: not determined
# [2] = system: DENV; assay: Antiviral activity against DENV in HEK293 cells; conditions: Dengue virus; for EC90: HEK293, read-out: DENV (HEK293 cells) EC90; for log reduction at 10 µM: HEK293, read-out: DENV (HEK293 cells) VTR (virus titer reduction)
# [3] = Cytotoxicity (CC50) in NHDF cells; conditions: human, CHIKV
# Experimental: as §1
# VTR=Virus titer reduction in log at 10 μM concentration. NT: not tested, ND: not determined.
# [4] = system: CHIKV; assay: Antiviral activity against CHIKV in NHDF cells; conditions: Chikungunya virus; for EC90: read-out: CHIKV (NHDF cells) EC90; for log reduction at 10 µM: read-out: CHIKV (NHDF cells) VTR (virus titer reduction)
# [5] = system: H3N2 strain; assay: Antiviral activity against Influenza H3N2 strain in MDCK cells; conditions: Influenza A virus; for log reduction at 20 µM: at 20 μM concentration, 4-6 hours pre-incubation, read-out: H3N2 strain (MDCK cells) VTR (virus titer reduction); for EC90: 4-6 hours pre-incubation with compound
# Experimental: (§2) The antiviral activity against Influenza viruses (H1N1 and H3N2 strains) evaluated in MDCK cells (4-6 hours pre-incubation with compound) shown in Table 5 below. VTR=Virus titer reduction in log at 20 μM concentration. NT: not tested, ND: not determined.
# [6] = system: H1N1 strain; assay: Antiviral activity against Influenza H1N1 strain in MDCK cells; conditions: Influenza A virus; for log reduction at 20 µM: at 20 μM concentration, 4-6 hours pre-incubation, read-out: H1N1 strain (MDCK cells) VTR (virus titer reduction); for EC90: 4-6 hours pre-incubation with compound
# Experimental: as §2
# [7] = system: WNV; assay: Antiviral activity against WNV in HEK293 cells; conditions: West Nile virus; for EC90: HEK293, read-out: WNV (HEK293 cells) EC90; for log reduction at 10 µM: HEK293, read-out: WNV (HEK293 cells) VTR (virus titer reduction)
# [8] = Cytotoxicity (CC50) in MDCK cells; conditions: dog, H1N1
# Experimental: as §1, §2
# [9] = system: ZIKA; assay: Antiviral activity against ZIKA in HEK 293 cells; conditions: Zika virus; for EC90: HEK293, read-out: ZIKA (HEK 293 cells) EC90; for log reduction at 10 µM: HEK293, read-out: ZIKA (HEK 293 cells) VTR (virus titer reduction)
# [10] = system: VEEV; assay: microbe, parasite or virus in culture; conditions: Venezuelan equine encephalitis virus, NHDF; for EC90: read-out: VEEV (NHDF cells) EC90; for log reduction at 10 µM: read-out: VEEV (NHDF cells) VTR (virus titer reduction)
Compound,CC50 [1] [µM],EC90 [2] [µM],log reduction at 10 µM [2],CC50 [3] [µM],EC90 [4] [µM],log reduction at 10 µM [4],log reduction at 20 µM [5],log reduction at 20 µM [6],EC90 [7] [µM],log reduction at 10 µM [7],CC50 [8] [µM],EC90 [5] [µM],EC90 [6] [µM],EC90 [9] [µM],log reduction at 10 µM [9],EC90 [10] [µM],log reduction at 10 µM [10]
"CC[C@H](C)[C@@H](N)C(=O)OC[C@H]1O[C@@H](n2ncc(=O)[nH]c2=O)C(O)C1O (stereo partly drawn) [Compound 13, ((2r,3s,4r,5r)-5-(3,5-dioxo-4,5-dihydro-1,2,4-triazin-2(3)-yl)-3,4-dihydroxytetrahydrofuran-2-yl)methyl D-alloisoleucinate]",6.7,0.5,4,> 40,0.51,4.3,2.8,3.6,,,,,,,,,
"O=C(Nc1cnn([C@@H]2O[C@H](CO)[C@@H](O)[C@H]2O)c(=O)n1)C1CC1 [Compound 21, N-(2-((2R,3R,4S,5R)-3,4-dihydroxy-5-(hydroxymethyl)tetrahydro-furan-2-yl)-3-oxo-2,3-dihydro-1,2,4-triazin-5-yl)cyclopropane-carboxamide]",18.9,0.34,3.4,,4.9,1.7,3,3.6,0.4,4.5,> 20,3.9,2.8,0.2,4,,
"CC[C@H](C)[C@H](N)C(=O)OC[C@H]1O[C@@H](n2ncc(N)nc2=O)[C@H](O)[C@@H]1O [Compound 25, ((2r,3s,4r,5r)-5-(5-amino-3-oxo-1,2,4-triazin-2(3H)-yl)-3,4-dihydroxytetrahydrofuran-2-yl)methyl L-isoleucinate]",> 40,5.1,2,> 40,0.85,2.58,,,,,,,,,,1.5,2.17
"CCCCCCCCCCCCCCCCCC(=O)OC[C@H]1O[C@@H](n2ncc(=O)[nH]c2=O)[C@H](O)[C@@H]1O [Compound 15, ((2r,3s,4r,5r)-5-(3,5-dioxo-4,5-dihydro-1,2,4-triazin-2(3H)-yl)-3,4-dihydroxytetrahydrofuran-2-yl)methyl stearate]",0.97,0.16,3.6,7.96,0.31,2.6,3,3.3,0.33,4.5,> 20,3.29,0.75,0.4,3,> 10,0
"CC(C)[C@@H](N)C(=O)OC[C@H]1O[C@@H](n2ncc(=O)[nH]c2=O)C(O)[C@H]1O (stereo partly drawn) [Compound 9, ((2r,3s,4r,5r)-5-(3,5-dioxo-4,5-dihydro-1,2,4-triazin-2(3H)-yl)-3,4-dihydroxytetrahydrofuran-2-yl) methyl-D-valinate]",29,1.3,3.2,> 40,1,1.34,3.4,3.4,0.22,3.5,19.6,2.41,0.77,1.4,2,3.04,3.1
"CCCCCCCCCCCC(=O)Nc1cnn([C@@H]2O[C@H](CO)[C@@H](O)[C@H]2O)c(=O)n1 [Compound 19, N-(2-((2r,3r,4s,5r)-3,4-dihydroxy-5-(hydroxy-methyl)tetrahydrofuran-2-yl)-3-oxo-2,3-dihydro-1,2,4-triazin-5-yl)dodecanamide]",> 40,0.6,2.1,,,,3.3,3.3,0.7,4,> 20,12.1,3.16,1.1,2.6,,
"CC(C)OC(=O)[C@H](C)NP(=O)(OC[C@H]1O[C@@H](n2ncc(=O)[nH]c2=O)[C@H](O)[C@@H]1O)Oc1ccccc1 (mixture of isomers) [Compound 5, isopropyl ((((2R,3S,4R,5R)-5-(3,5-dioxo-4,5-dihydro-1,2,4-triazin-2(3H)-yl)-3,4-dihydroxytetrahydrofuran-2-yl)methoxy)(phenoxy)phosphoryl)-L-alaninate]",,> 30,,> 40,> 10,0.15,-0.1,0.2,> 30,,> 100,,,> 30,,> 10,0
"CCOP(=O)(OCC)OC[C@H]1O[C@@H](n2ncc(=O)[nH]c2=O)C(O)C1O (stereo partly shown) [Compound 16, (2r,3s,4r,5r)-5-(3,5-dioxo-4,5-dihydro-1,2,4-triazin-2(3H)-yl)-3,4-dihydroxytetrahydrofuran-2-yl) methyl diethyl phosphate]",> 40,> 30,,,,,,,> 10,,> 100,,> 100,> 10,,10.1,1.05
"CCC(CC)COC(=O)[C@H](C)NP(=O)(OC[C@H]1O[C@@H](n2ncc(=O)[nH]c2=O)[C@H](O)[C@@H]1O)Oc1ccccc1 (mixture of isomers) [Compound 3, 2-ethylbutyl ((((2R,3S,4R,5R)-5-(3,5-dioxo-4,5-dihydro-1,2,4-triazin-2(3H)-yl)-3,4-dihydroxytetrahydrofuran-2-yl)methoxy)(phenoxy)phosphoryl)-L-alaninate]",> 40,2.5,3.5,> 40,> 10,0,,,2.9,3.2,,,,3.3,2.4,> 10,0
"N[C@@H](Cc1ccccc1)C(=O)OC[C@H]1O[C@@H](n2ncc(=O)[nH]c2=O)[C@H](O)[C@@H]1O [Compound 11, ((2r,3s,4r,5r)-5-(3,5-dioxo-4,5-dihydro-1,2,4-triazin-2(3H)-yl)-3,4-dihydroxytetrahydrofuran-2-yl)methyl L-phenylalaninate]",,> 30,,> 40,> 10,0.05,3.4,3.4,> 30,,> 20,0.78,0.14,> 30,,,
"CC[C@@H](C)[C@@H](N)C(=O)OC[C@H]1O[C@@H](n2ncc(=O)[nH]c2=O)[C@H](O)[C@@H]1O [Compound 12, ((2r,3s,4r,5r)-5-(3,5-dioxo-4,5-dihydro-1,2,4-triazin-2(3H)-yl)-3,4-dihydroxytetrahydrofuran-2-yl)methyl D-isoleucinate]",6.2,0.5,3.9,> 40,0.89,4.55,,,,,,,,,,,
